In this assay the test system is Human acute myelocytic leukemia cells HL-60. Briefly: Inhibitory activity on tumor cells, viable cell count by modified Mosmann (MTT) method. It is filed as cell-based. The following applies: HL-60 cells, 50,000 cells/well, 24 hours culture with compound, then MTT 3 hours; average of at least triplicate; read-out: IC50 (fifty percent inhibitory concentration). As for the experimental part: The cells were washed with PBS.
Formazan crystals formed by the enzyme activity of mitochondria in the cells were dissolved in 0.04 mol/HCl/isopropyl alcohol.

SMILES strings stand for the structures.

Turning to `CP(c1nc2ccccc2nc1P(C)C(C)(C)C)C(C)(C)C.CP(c1nc2ccccc2nc1P(C)C(C)(C)C)C(C)(C)C.[Au+].[Cl-]` (stereo not shown) [Example 1, bis(2,3-bis(t-butylmethylphosphino)quinoxaline)gold (I) chloride], the IC50 amounted to 517 nM.

Source of the values: patent US8278303B2, “Phosphine transition metal complex, process for producing same, and anticancer agent” (Nippon Chemical Industrial Co., Ltd., priority 2006, dated 2012).
